From patent US8258099B2, “Pin1-modulating compounds and methods of use thereof” (Max-Planck-Gesellschaft zur Foerderung der Wissenschaften …, priority 2004, dated 2012) come the findings set out here.

SMILES strings stand for the structures. Square brackets hold non-standard residues; d marks the D form. Peptide text beside a SMILES is read from it. * marks the point of attachment. Biotin = O=C1N[C@H]2[C@H](CS[C@H]2CCCCC(=O)*)N1; d(pT) = C[C@H](OP(=O)(O)O)[C@@H](N)C(=O)O; 2Nal = N[C@@H](Cc1ccc2ccccc2c1)C(=O)O; Bta = N[C@@H](Cc1csc2ccccc12)C(=O)O; Pip = O=C(O)[C@@H]1CCCCN1

One series relates to X. laevis embryos. The series is described as follows: Microinjection in X. laevis embryos, cell division. Format: in vivo. The settings on record: microinjection at stage 2. As for the experimental part:
FIG. 8 depicts the blocking of cell division by the injection of peptide 17 in X. laevis embryos. 50-300 pmol of peptide 17 or 300 pmol of its nonphosphorylated derivative (control) dissolved in 10 nl PBS buffer were microinjected in the animal half of X. laevis embryos at stage 2 of development. Embryos with large and/or apoptotic appearing cells surrounded by normally developing cells were counted after further 5 hours (stage 8-9) of development. […] Each value is the average of four independent experiments.
FIGS. 9A-F depicts phenotypic analysis of X. laevis embryos after injection of peptide 17. 300 pmol of peptide 17 or its nonphosphorylated derivative dissolved in 10 nl PBS buffer were injected in the animal half of X. laevis embryos at stage 2 of development. 1.5 hour at stage 6 (A), 2.5 hours at stage 7 (B) and 4-5 hours at stage 8-9 (C, D) after injection enlarged cells became visible. Cells that are blocked in cell division are marked with a white arrow. Controls of uninjected embryos of stage 8-9 and embryos that were injected with 300 pmol of the nonphosphorylated derivative of peptide 17 are shown in panels E and F. The site where the nonphosphorylated derivative of peptide 17 was injected is marked with a white arrow (F).
FIGS. 10A-D depict the rescue of peptide 17 caused cell division block in X. laevis embryos by hPin1 (A, B) and different hPin1 variants (C, D). FIG. 10A depicts the time course of V5-tagged hPin1 expression was analyzed by preparation of X. laevis embryo lysate 1, 2 and 4 hours after injection of 1, 2 or 3 ng of V5-tagged hPin1 mRNA. In every case, the injected volume was 10 nl. Lysates were prepared in lysis buffer containing phosphatase and protease inhibitors. Samples were separated by SDS PAGE followed by western blotting. Endogenous XlPin1 and V5-tagged hPin1 were detected using an anti hPin1 PPIase domain antiserum as primary antibody followed by incubation with a horseradish peroxidase-conjugated secondary antibody. Visualization was done using the SuperSignal® substrate. […] In every case, the whole volume of injection was 10 nl. The indicated amount of the mRNA was injected in the animal half of 30 embryos at stage 2 of development. Embryos with large and/or apoptotic appearing cells surrounded by normally developed cells were counted after additional 5 hours of development (stage 8-9). […] Each percentage of vital embryos shown in the figure is the average of four independent experiments. FIG. 10C indicates the expression of V5-tagged hPin1 variants was evaluated by preparation of embryo lysate after 4 hours of injection of the respective mRNA (2 ng) in X. laevis embryos. Lysates were prepared in lysis buffer containing phosphatase and protease inhibitors. Samples were separated using SDS PAGE followed by western blot analysis. Endogenous XlPin1 and injected V5-tagged hPin1 variants were detected using an anti hPin1 PPIase domain antiserum as primary antibody and a horseradish peroxidase-conjugated secondary antibody. Visualization was done by a chemiluminescent reaction using the SuperSignal® substrate (Pierce). FIG. 10D depicts 250 pmol of peptide 17 was coinjected with 2 ng mRNA of the indicated V5-tagged hPin1 variant (whole volume 10 nl) in the animal half of 30 X. laevis embryos at stage 2 of development. Results were analyzed as described for FIG. 10B. Each percentage of vital embryos shown in the figure is the average of four independent experiments.
Microinjection was done into the animal half of X. laevis embryos at stage 2 of development. In every case, the injection volume was 10 nl. Immunofluorescence studies of frozen X. laevis embryo sections were performed as previously described (Julius et al., 2000). Ten-micrometer cryosections of stage 8 embryos were labelled using a monoclonal anti hPin1 antibody (mouse) followed by incubation with Alexa Fluor 546™-conjugated anti mouse antibody of goat serum (Molecular Probes). […]

Series [1] is described as follows: Stability against cellular phosphatases and proteases in HeLa cell lysate. The class given is in vitro ADME. The following applies: discussion statement (FIG. 4). The procedure:
FIG. 4 depicts the stability of peptide 17 against cellular phosphatases and proteases. Peptide 17 was incubated for 3 hours in HeLa cell lysate in the absence of phosphatase and protease inhibitors. The mixture was then analyzed by capillary electrophoresis (short dashed line). As controls, the untreated peptide 17 (solid line) and its nonphosphorylated derivative (dotted line) were used. The temperature of the capillary thermostating system was kept at 16° C. Separation buffer was 50 mM sodium phosphate, pH 7.0. Signals were detected at 220 nm.
Peptide 17 was incubated with HeLa cell lysate for 3 h and analyzed with capillary electrophoresis using UV detection at 220 nm on a P/ACE MDQ (Beckman Coulter, Palo Alto, Calif.) system. Fused-silica capillaries (Polymicro Technologies) of 40 cm length at an operation voltage of 20 kV were used. As references, untreated peptide 17 and its nonphosphorylated derivative were used. The samples were hydrodynamically injected with 3.45 kPa for 10 s. 50 mM sodium phosphate buffer (pH 7.0) was used as separation buffer. The system temperature was kept at 16° C.
The stability of peptides 15 and 17 in cytoplasmic extracts from HeLa cells was investigated using MALDI-TOF mass spectrometry and capillary electrophoresis, respectively. In the cytosolic incubation mixture, streptavidin sepharose beads served to isolate peptide 15 fragments after prolonged incubation. […] Therefore, phosphopeptides are useless for evaluating Pin1 functions in vivo unless dephosphorylation can be avoided.

The subject of another series is authentic XlPin1. The series can be described thus: Pull down assay, X. laevis embryo lysate. The class given is binding. The following applies: no phosphatase inhibitors, streptavidin sepharose. As for the experimental part: (§1) FIGS. 5A-B depict pull down assays showing peptide 16 binds to authentic XlPin1 (A) and hPin1 from HeLa cells (B). FIG. 5A depicts the indicated concentrations of peptide 16 were incubated with X. laevis embryo extract in the absence of phosphatase inhibitors. Peptide 16/XlPin1-complex was then extracted from the respective mixture using streptavidin sepharose. Samples were analyzed regarding coextracted XlPin1 by SDS PAGE followed by western blot analysis. Untreated lysate (input) was loaded as a control. Authentic XlPin1 was detected using an anti hPin1 PPIase domain antiserum followed by incubation with a horseradish peroxidase-conjugated secondary antibody. Visualization was done using the SuperSignal® substrate. FIG. 5B indicates concentrations of peptide 16 were incubated with HeLa cell lysate in the absence of phosphatase inhibitors. The peptide 16/hPin1-complex was then precipitated from the respective mixture using streptavidin sepharose and isolated from the supernatant. Extracted proteins and the supernatants were then analyzed by SDS PAGE. […] After western blotting, hPin1 was detected using an anti hPin1 PPIase domain antiserum as primary antibody and a horseradish peroxidase-conjugated secondary antibody. […]
(§2) Peptide 16 (see Table III) was incubated with HeLa cell or X. laevis embryo lysate for 1 hour at 4° C. […] The samples were then heated to 95° C. and analyzed by SDS PAGE. […]

A further series deals with T1, authentic hPin1 (Homo sapiens, UniProt Q13526).
T1 construct: endogenous in cells; host or cells: HeLa cell lysate
T1 sequence (Q13526 whole entry): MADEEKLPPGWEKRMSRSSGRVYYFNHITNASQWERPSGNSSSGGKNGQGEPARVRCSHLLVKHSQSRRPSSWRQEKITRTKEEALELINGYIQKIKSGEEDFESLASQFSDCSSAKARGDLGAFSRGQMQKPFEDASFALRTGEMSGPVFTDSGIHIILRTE
The series is described as follows: Pull down assay, HeLa cell lysate. The class given is binding. The following applies: streptavidin sepharose. As for the experimental part: as §1, §2

Another series relates to endogenous XlPin1. The series can be described thus: Immunofluorescence of microinjected X. laevis embryos. The settings on record: stage 8. Format: in vivo. The procedure:
FIG. 11 depicts the colocalization of peptide 16 and endogenous XlPin1 in X. laevis embryos. 100 pmol and 250 pmol of peptide 16 dissolved in 10 nl PBS buffer were injected in X. laevis embryos at stage 2 of development. In a control experiment, 10 nl of the pure PBS buffer were injected. Embryos were fixed at stage 8, embedded and cryosectioned. Peptide 16 is stained in green using the Oregon Green™ 488-labeled NeutrAvidin biotin-binding protein. Endogenous XlPin1 is stained in red using a monoclonal anti hPin1 antibody (mAb hPin1) from mouse and an Alexa Fluor 546™-conjugated secondary antibody. Overlapping patterns are shown in yellow in the merged images. Nuclei are stained with DAPI.
Microinjection was done into the animal half of X. laevis embryos at stage 2 of development. In every case, the injection volume was 10 nl. Immunofluorescence studies of frozen X. laevis embryo sections were performed as previously described (Julius et al., 2000). Ten-micrometer cryosections of stage 8 embryos were labelled using a monoclonal anti hPin1 antibody (mouse) followed by incubation with Alexa Fluor 546™-conjugated anti mouse antibody of goat serum (Molecular Probes). […] Samples were analyzed using an Axioplan epifluorescence microscope with fluorescein and Cy3 selective filter sets. […]

For `CC(=O)N[C@@H](CCCCNC(=O)CCCC[C@@H]1SC[C@@H]2NC(=O)N[C@@H]21)C(=O)N[C@@H](C)C(=O)N[C@@H](C)C(=O)N[C@@H](Cc1csc2ccccc12)C(=O)N[C@@H](C(=O)N1CCCC[C@H]1C(=O)N[C@@H](Cc1ccc2ccccc2c1)C(=O)N[C@@H](CCC(N)=O)C(N)=O)[C@H](C)OP(=O)(O)O` [Peptide 16, Ac-Lys(N^ε-biotinoyl)-Ala-Ala-Bth-D-Thr(PO3H2)-Pip-Nal-Gln-NH2] (Ac-K(Biotin)AA[Bta][d(pT)][Pip][2Nal]Q-NH2), the “effect on development of the embryos” value with X. laevis embryos is “cell cycle blockage and embryonic death”. The stability in cytosol result in series [1] is reported as “sufficiently stable”. In the series with authentic XlPin1, the “coprecipitation of authentic XlPin1” value is reported as “coprecipitated with peptide 16 in a dose-dependent manner”. The “pull down of authentic hPin1” value on authentic hPin1 is reported as “pulled down”. In the series on endogenous XlPin1 (100 pmol injected), the “colocalization with XlPin1” value was “clear nuclear colocalization”. The “effect on embryonic tissue” value in the series with endogenous XlPin1 (250 pmol injected) is given as “distortions of the embryonic tissue”.
